Measurements published in publication PMC5748833, “Synthesis and Biological Evaluation of Novel Hybrid Molecules Containing Purine, Coumarin and Isoxazoline or Isoxazole Moieties” (The Open Medicinal Chemistry Journal, 2017).

Experiments:
[1] = Reducing activity of the stable radical DPPH; conditions: 100 μM compound, after 20 min
Procedure, shortened: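 Compounds (100 μM) mixed with equal volume of 100 μM DPPH in absolute ethanol at room temperature; absorbance at 517 nm read after 20 and 60 min against ethanol control. Activity given as RA% (reducing activity); NDGA standard.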

[2] = biological target: T1, rat monoamine oxidase B (Rattus norvegicus, UniProt P19643); experiment: Inhibition of MAO-B (spectrofluorimetric method); type: biochemical; conditions: for MAO-B (%) @ 10μΜ: 10 μM compound
T1 construct: from tissue
T1 sequence (P19643 1-520): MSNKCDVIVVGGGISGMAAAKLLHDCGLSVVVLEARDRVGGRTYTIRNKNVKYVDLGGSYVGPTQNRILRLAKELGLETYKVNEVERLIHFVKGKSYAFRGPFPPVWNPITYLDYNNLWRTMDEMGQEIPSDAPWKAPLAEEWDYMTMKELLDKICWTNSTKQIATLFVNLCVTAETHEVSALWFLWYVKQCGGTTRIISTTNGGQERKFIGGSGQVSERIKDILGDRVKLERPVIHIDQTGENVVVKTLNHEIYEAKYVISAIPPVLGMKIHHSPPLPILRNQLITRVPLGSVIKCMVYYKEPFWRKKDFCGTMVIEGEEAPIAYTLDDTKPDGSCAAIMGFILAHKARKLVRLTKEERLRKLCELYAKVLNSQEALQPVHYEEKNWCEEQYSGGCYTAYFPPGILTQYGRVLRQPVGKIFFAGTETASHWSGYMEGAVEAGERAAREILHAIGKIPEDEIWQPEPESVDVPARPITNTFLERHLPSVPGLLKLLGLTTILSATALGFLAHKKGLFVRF
Source text: (§1) 2.2.2.6 Inhibition Study on MAOs in vitro
(§2) Inhibition of rat monoamine oxidase A and B was studied by means of a spectrofluorimetric method as previously detailed.

[3] = biological target: T2, rat monoamine oxidase A (Rattus norvegicus, UniProt P21396); experiment: Inhibition of MAO-A (spectrofluorimetric method); type: biochemical; conditions: 10 μM compound
T2 construct: from tissue
T2 sequence (P21396 1-526): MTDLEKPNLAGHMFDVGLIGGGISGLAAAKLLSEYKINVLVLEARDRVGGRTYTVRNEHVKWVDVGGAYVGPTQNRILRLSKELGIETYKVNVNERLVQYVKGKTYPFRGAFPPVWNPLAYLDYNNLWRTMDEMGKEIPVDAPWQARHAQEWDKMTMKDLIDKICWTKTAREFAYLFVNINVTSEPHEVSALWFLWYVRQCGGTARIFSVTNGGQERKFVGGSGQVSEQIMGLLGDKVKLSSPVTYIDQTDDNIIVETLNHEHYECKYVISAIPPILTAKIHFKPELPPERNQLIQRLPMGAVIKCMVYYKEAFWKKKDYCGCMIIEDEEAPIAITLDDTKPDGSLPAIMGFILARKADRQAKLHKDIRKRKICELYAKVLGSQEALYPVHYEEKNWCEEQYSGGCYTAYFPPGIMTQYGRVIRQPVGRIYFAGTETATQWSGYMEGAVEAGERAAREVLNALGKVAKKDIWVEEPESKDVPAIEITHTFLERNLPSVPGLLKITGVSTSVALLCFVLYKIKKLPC
Source text: as §1, §2

With `Cc1cc(=O)oc2ccc(OCC3=NOC(Cn4cnc5c(Cl)ncnc54)C3)cc12` (stereo not drawn) [11b] the “RA% @ 100μΜ (reducing activity, DPPH)” value [1] was 5%, the IC50 ([2]; read-out: MAO-B IC50 μΜ) was 9.5 µM and the “MAO-A (%) @ 10μΜ” value [3] was 15%.
With `O=c1cc(OCc2cc(Cn3cnc4c(N5CCOCC5)ncnc43)no2)c2ccccc2o1` [13i] the “RA% @ 100μΜ (reducing activity, DPPH)” value [1] was “no”, the “MAO-B (%) @ 10μΜ” value [2] was 9% and the “MAO-A (%) @ 10μΜ” value [3] was 6%.
In the case of `O=c1cc(OCC2CC(Cn3cnc4c(N5CCCCC5)ncnc43)=NO2)c2ccccc2o1` (stereo not drawn) [4f], the “RA% @ 100μΜ (reducing activity, DPPH)” value [1] is reported as 3%, the “MAO-B (%) @ 10μΜ” value [2] is reported as “no” and the “MAO-A (%) @ 10μΜ” value [3] is reported as “no”.
